The nature of data set [1]: Solid state stability of physical forms at 40° C./75% RH by pXRD. The note with it: 40° C./75% RH open, 7 days. The class given is physicochemical. The procedure: Physical forms crystallized from various methods of crystallization were exposed to 40° C./75% RH for 7 days in open condition to understand the physical stability of the new physical forms in the presence of heat and humidity and also to know if there is any form conversion in the stable forms of Esylate and oxalate salts of FT-1518.

Data set [2] is described as follows: Intravenous and per oral pharmacokinetics in male Sprague Dawley rats. The class given is in vivo, Sprague Dawley (SD) rats. The note with it: for Bioavailability (% F): PO dose (10 mg/kg) vs IV 5 mg/kg. Here is the method:
The husbandry conditions were maintained as described in animal facility SOPs during the study period. Animals procured were quarantined for 7 days followed by acclimatization for 5 days. The study was carried out for two days. Male Balb/c mice of age 10-12 weeks (18-25 g) and male Sprague Dawley rats 8-10 weeks (220-280 g) were used. The food was with held for a period of 4-12 hr prior to dosing and returned to all animals 4h post dosing and water supplied ad libitum. The doses of FT1518 were as follows: Mice: 10 mg/kg intravenous (i.v) and 50 mg/kg oral (p.o); rat—5 mg/kg intravenous (i.v) and 10 mg/kg oral (p.o). The formulation used in i.v and p.o studies were 10% dimethylsulfoxide (DMSO)+30% polyethyleneglycol 400 (PEG400)+60% water and 0.5% methylcellulose (MC)+0.1% tween 80. Blood was collected at the predetermined time points in mice (cardiac puncture) and Jugular vein (rats) over a period of 24h in eppendorf tubes containing K2EDTA as anticoagulant. The plasma was isolated from the blood and stored at −80° C. until bioanalysis.
Intravenous and Per Oral Pharmacokinetic Profile of FT1518 (Base); FT1518-Esylate Salt and FT1518-Oxalate Salt in Male Sprague Dawley (SD) Rats Species: SD rats Gender: Male Dose: IV (5 mg/kg), Single dose • PO (10 mg/kg), single dose Formulation: • IV—DMSO: PEG400:Water (10:30:60 v/v) • PO— 0.5% methylcellulose and 0.1% Tween 80 in water Sampling Time Points: • IV: 5 min, 15 min, 30 min, 1 h, 2, 4, 8 and 24 h post dose • PO: 10 min, 15 min, 30 min, 1 h, 2, 4, 8 and 24 h post dose. PK analysis: Phoenix software (Pharsight product). Noncompartmental Analysis (NCA) was used to estimate the PK parameters

The test system of data set [3] is Mouse plasma. Briefly: Plasma protein binding, mouse. It counts as in vitro ADME. The note with it: for % Bound, Mouse plasma: 10 μM (n = 4). The procedure: (§1) All in vitro experiments like protein binding, microsomal stability, cell cytotoxicity were performed as per study protocols of respective experiments.
The test system of data set [4] is prostate cancer (PC-3). The experiment in a line: In vitro assay, PC-3. The class given is cell-based. The note with it: prostate cancer (PC-3) line. Here is the method:
as §1

Data set [5] is described as follows: Hepatic clearance, mouse. The class given is in vitro ADME.
Data set [6] in a line: Hepatic clearance, human. The class given is in vitro ADME.
A short description of data set [7]: Hepatic clearance, rat. The class given is in vitro ADME.
A short description of data set [8]: Hepatic clearance, dog. The class given is in vitro ADME. The note with it: dogs.
In data set [9] the test system is Caco-2. Briefly: Caco-2 permeability. (In general: Caco-2 monolayers are a common model of the intestinal barrier.)
Data set [10] in a line: Plasma protein binding, mouse. The class given is in vitro ADME. The note with it: mouse, plasma, 10 μM (n = 4); read-out: % Bound, Mouse plasma (converted). Here is the method:
as §1

Data set [11] in a line: Plasma protein binding, human. The class given is in vitro ADME. The note with it: human, plasma, 10 μM (n = 4); read-out: % Bound, Human Plasma (converted). Here is the method:
as §1

Data set [12] in a line: Caco-2 permeability. The note with it: human, Caco-2.
The nature of data set [13]: Qualitative solubility of FT1518 in aqueous media containing counterions. It counts as physicochemical. An excerpt:
Solubility of FT-1518 was checked in various counter ion solutions before performing salt screening to obtain an estimate of feasibility of salt formation in the respective counter ions.

For data set [14], the system named is Caco-2.
Where [15] appears, read: sample from cooling crystallization in ethanol.
Setting [16] is: sample from slurry transformation in ethyl acetate.
The mark [17] stands for this setting: sample from solvent evaporation in acetonitrile.
Setting [18] is: sample from solvent evaporation in ethanol.
Where [19] appears, read: PO dose (10 mg/kg), single dose, male SD rats, 10 mg/kg.
[20] abbreviates: IV dose (5 mg/kg), single dose, male SD rats.

The results in this text go back to patent publication US11820782B2, “Salt forms of amino pyrazine purine based selective kinase inhibitor” (FTG BIO LLC, priority 2018, dated 2023).

The structures appear in SMILES notation. Read-outs that look alike come from different tables or passages of the source.

A word on the Cmax: it is the peak of the concentration-time curve. For orientation: IC50 means the concentration that gives 50% inhibition. Read a high IC50 as lower potency. Broadly, the AUC is the area under the concentration-time curve, a measure of exposure. A word on the efflux ratio: it is a quotient of directional permeabilities that is used to spot active efflux. For orientation: Papp A→B means the apparent permeability from the apical to the basolateral side of a cell layer. The Papp B→A is how fast a substance crosses the layer from the basolateral side. A word on the Solubility: it is the concentration that dissolves in the medium under given conditions. A higher Solubility goes with a readily soluble substance. As a reminder, the Tmax is the time at which the peak concentration occurs.

Consider `CCC(CC)n1cnc2c(-c3cnc(N)cn3)nc(N3CC4CCC(C3)O4)nc21` [FT-1518-Oxalate], for which the “solid state stability (pXRD form)” value in [1] (setting [15]) is “Same as initial salt”; in data set [1] (sample from cooling crystallization in tetrahydrofuran), “Same as initial salt”; in data set [1] (sample from slurry transformation in ethyl acetate: water (9:1)), “remained same”; in [1] (setting [16]), “Same as initial”; in data set [1] (sample from slurry transformation in hexane) it was “Same as initial”; in [1] (sample from solvent evaporation in acetone), “Same as initial salt form”. The “solid state stability (pXRD form)” value in [1] (setting [17]) is recorded as “Same as initial salt”; in data set [1] (setting [18]), “Partial conversion of new”; in data set [1] (sample from solvent evaporation in tetrahydrofuran) it was “Major conversion of new”. Further, in data set [2] (male SD rats), the “Bioavailability (% F)” value came out at 68%. Further, the Cmax in data set [2] (setting [19]) worked out at 1980 ng/mL. Further, in data set [3], the “plasma protein binding, mouse plasma” value was “✓ FT1518, FT1518-Esylate and FT1518-Oxalate showed moderate plasma protein binding in both mouse and human plasma”. Besides, in data set [3], the “% Bound, Mouse plasma” value is listed as 91.79%. In data set [4], this compound returned an IC50 of 183 µM. The “hepatic clearance in terms of liver blood flow” value in data set [5] is “moderate”; in data set [6], “moderate”; in [7], “moderate”; in data set [8], “low”. Also, the “permeability in Caco-2 assay” value in [9] is “✓ FT1518 base, FT1518-Esylate and FT1518-Oxalate showed high permeability in Caco-2 assay. Efflux ratio of <2 indicates compounds that the compounds may not be substrates of P-gp or BCRP efflux transporters”. In addition, the “Apparent permeability (Papp) A to B” value in data set [9] (10 μM (n = 3), Caco-2) turned out to be 23.207 ± 1.801 ×10⁻⁶ cm/s. In addition, the “Apparent permeability (Papp) B to A” value in data set [9] (10 μM (n = 3), Caco-2) came to 29.203 ± 1.482 ×10⁻⁶ cm/s.

Take `CCC(CC)n1cnc2c(-c3cnc(N)cn3)nc(N3CC4CCC(C3)O4)nc21` [FT-1518-Esylate]: the “solid state stability (pXRD form)” value is “remained the same” in [1] (setting [15]); “Same as initial salt” in data set [1] (sample from slurry transformation in THF: toluene (1:1)); “Same as initial salt” in data set [1] (sample from slurry transformation in THF); 40 °C slurry converted in [1] (setting [16]); “Same as initial salt” in [1] (sample from slurry transformation in toluene); “Same as initial salt” in data set [1] (sample from solvent evaporation in THF:water (9:1)). The “solid state stability (pXRD form)” value in [1] (setting [17]) is “Same as initial salt”; in [1] (setting [18]), “formed Same as initial salt”; in data set [1] (sample from solvent evaporation in methanol) it was “Same as initial salt”. In addition, the “Bioavailability (% F)” value in data set [2] (male SD rats) is above 100%. Also, in data set [2] (male, Sprague Dawley, rat, plasma, po, 10 mg/kg, PO dose (10 mg/kg), single dose, male SD rats, read-out: AUC (AU C0^.oo)), the AUC stood at 9680 ng·h/mL. Also, the Cmax in [2] (male, Sprague Dawley, rat, plasma, po, 10 mg/kg, PO dose (10 mg/kg), single dose, male SD rats, read-out: Cmax) came out at 1770 ng/mL. Also, the fraction unbound at 10 μM was 0.0854 in data set [10] and 0.0298 in [11]. In [3], the “plasma protein binding, mouse plasma” value is “✓ FT1518, FT1518-Esylate and FT1518-Oxalate showed moderate plasma protein binding in both mouse and human plasma”. The “hepatic clearance in terms of liver blood flow” value in [5] is “high”; in data set [6] it was “moderate”; in data set [7], “low”; in [8], “low”. Also, the efflux ratio at 10 μM in [12] was found to be 1.8. Moreover, the Papp A→B at 10 μM in data set [12] (Caco-2, Apparent permeability (Papp) A to B, 10 μM (n = 3)) came out at 21.6 ± 0.887 ×10⁻⁶ cm/s. In data set [12] (Caco-2, Apparent permeability (Papp) B to A, 10 μM (n = 3)), the Papp B→A at 10 μM was 38.3 ± 0.426 ×10⁻⁶ cm/s. For the same compound, in [9], the “permeability in Caco-2 assay” value was “✓ FT1518 base, FT1518-Esylate and FT1518-Oxalate showed high permeability in Caco-2 assay. Efflux ratio of <2 indicates compounds that the compounds may not be substrates of P-gp or BCRP efflux transporters”.

Turning to `CCC(CC)n1cnc2c(-c3cnc(N)cn3)nc(N3CC4CCC(C3)O4)nc21` [FT-1518 base], the Solubility in [13] (0.04N phthalic acid) is below 1000 µg/mL. This compound also registered a Solubility in [13] (0.1N H2SO4) above 100000 µg/mL. The compound further registered a Solubility in data set [13] (0.1N adipic acid) below 1000 µg/mL. For the same compound, the “clearance as % of SD rat liver blood flow” value in [2] (IV 5 mg/kg, SD rats) is around 42%. Further, in data set [2] (setting [20]), the “AUC0-∞” value amounted to 3905 ± 1334 ng·h/mL and the “Cl” value came to 23.3 ± 10 mL/min/kg. Besides, in data set [2] (male SD rats), the “Bioavailability (% F)” value worked out at 44%. In [2] (PO dose (10 mg/kg), single dose, male SD rats), the Tmax was 30 min. In data set [2] (setting [19]), the “AUC (AU C0^.oo)” value turned out to be 3422 ± 684 ng·h/mL and the Cmax amounted to 1592 ng/mL. Moreover, in data set [3], the “plasma protein binding, mouse plasma” value is “✓ FT1518, FT1518-Esylate and FT1518-Oxalate showed moderate plasma protein binding in both mouse and human plasma”; the “% Bound, Mouse plasma” value was found to be 91.52%. Moreover, in data set [14], the “Apparent permeability (Papp) A to B” value turned out to be 21.571 ± 1.767 ×10⁻⁶ cm/s; the “Apparent permeability (Papp) B to A” value came to 30.94 ± 0.428 ×10⁻⁶ cm/s; the “permeability in Caco-2 assay” value was “✓ FT1518 base, FT1518-Esylate and FT1518-Oxalate showed high permeability in Caco-2 assay. Efflux ratio of <2 indicates compounds that the compounds may not be substrates of P-gp or BCRP efflux transporters”.
